From US6204293A, “Inhibitors of protein isoprenyl transferases” (University of Pittsburgh, priority 1998, dated 2001)

Target: T1, Rat brain protein farnesyltransferase (Rattus norvegicus, UniProt Q02293+Q04631)
T1 construct: Rat brain protein farnesyltransferase activity is measured; from tissue; host or cells: rat brain
Experiment: % inhibition of farnesylation, scintillation proximity assay with biotin-K Ras B fragment
Assay type: biochemical
Details: for % inhibition at 1 × 10^-6 M: Table 2; for % inhibition at 1 × 10^-5 M: Table 1
Summary of the method: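 Rat brain enzyme, purified through three steps, in a scintillation proximity assay kit with biotin-K Ras B fragment substrate at 0.1 mM final. Value is % inhibition of farnesylation.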

T1 sequence (Q02293 whole entry, one chain of several): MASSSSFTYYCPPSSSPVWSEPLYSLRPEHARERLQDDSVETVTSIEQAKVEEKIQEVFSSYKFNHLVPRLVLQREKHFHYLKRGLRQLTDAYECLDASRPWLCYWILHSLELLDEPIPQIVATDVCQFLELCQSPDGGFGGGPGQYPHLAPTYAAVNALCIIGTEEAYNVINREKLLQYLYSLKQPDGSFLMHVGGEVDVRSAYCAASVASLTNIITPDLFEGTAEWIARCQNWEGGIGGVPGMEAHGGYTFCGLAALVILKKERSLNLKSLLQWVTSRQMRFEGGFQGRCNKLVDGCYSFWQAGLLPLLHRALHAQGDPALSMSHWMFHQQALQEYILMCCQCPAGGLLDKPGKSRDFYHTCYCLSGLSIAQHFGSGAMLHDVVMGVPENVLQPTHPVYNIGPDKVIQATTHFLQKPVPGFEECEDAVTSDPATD

SMILES	% inhibition at 1 × 10^-6 M	% inhibition at 1 × 10^-5 M
CCOC(=O)c1ccc(NCc2ccc(C(=O)N[C@@H](CCSC)C(=O)O)c(-c3ccccc3)c2)cc1 [Example 646]	58%	
CSCC[C@H](NC(=O)c1ccc(CN(CCC#N)Cc2ccccc2)cc1-c1ccccc1)C(=O)O [Example 649]	86%	
COc1ccccc1CNCc1ccc(C(=O)N[C@@H](CCSC)C(=O)O)c(-c2ccccc2)c1 [Example 650]	68%	
COc1cccc(CNCc2ccc(C(=O)N[C@@H](CCSC)C(=O)O)c(-c3ccccc3)c2)c1 [Example 652]	41%	
CSCC[C@H](NC(=O)c1ccc(CNCc2ccc(N)cc2)cc1-c1ccccc1)C(=O)O [Example 653]	62%	
COc1ccc(CNCc2ccc(C(=O)N[C@@H](CCSC)C(=O)O)c(-c3ccccc3)c2)c(OC)c1 [Example 655]	35%	
CSCCC(NC(=O)c1ccc(CNC(CO)c2ccccc2)cc1-c1ccccc1)C(=O)O (stereo not shown) [Example 657]	32%	
CSCCC(NC(=O)c1ccc(CNC(CO)c2ccccc2)cc1-c1ccccc1)C(=O)O (stereo not shown) [Example 658]	73%	
COc1cc2c(cc1OC)C(CNCc1ccc(C(=O)N[C@@H](CCSC)C(=O)O)c(-c3ccccc3)c1)=CC(C1CCCCC1)C2 (stereo partly shown) [Example 659]		55%
CSCC[C@H](NC(=O)c1ccc(CNCC(O)c2cccc(O)c2)cc1-c1ccccc1)C(=O)O (stereo partly shown) [Example 661]	45%	
CSCC[C@H](NC(=O)c1ccc(CNC(CO)Cc2ccc(Cl)cc2)cc1-c1ccccc1)C(=O)O (stereo partly shown) [Example 662]	68%	
CSCC[C@H](NC(=O)c1ccc(CNCCC2CCCCC2)cc1-c1ccccc1)C(=O)O [Example 663]		43%
C=C[C@@H](CC1CCCCC1)NCc1ccc(C(=O)N[C@@H](CCSC)C(=O)O)c(-c2ccccc2)c1 [Example 664]		75%
CSCC[C@H](NC(=O)c1ccc(CN[C@@H](/C=C\CC(C)C)CC2CCCCC2)cc1-c1ccccc1)C(=O)O [Example 665]	55%	
CSCC[C@H](NC(=O)c1ccc(CN[C@H](/C=C\CC(C)C)CC2CCCCC2)cc1-c1ccccc1)C(=O)O [Example 666]	82%	
CSCC[C@H](NC(=O)c1ccc(CNCCSc2ccccc2)cc1-c1ccccc1)C(=O)O [Example 667]	83%	
CSCC[C@H](NC(=O)c1ccc(CNc2ccccc2CCO)cc1-c1ccccc1)C(=O)O [Example 671]	36%	
CSCC[C@H](NC(=O)c1ccc(CNc2ccccc2N(C)C)cc1-c1ccccc1)C(=O)O [Example 672]		48%
CSCC[C@H](NC(=O)c1ccc(CNc2ccccc2N2CCCCC2)cc1-c1ccccc1)C(=O)O [Example 673]	59%	
CSCC[C@H](NC(=O)c1ccc(CNc2cccc(C)c2)cc1-c1ccccc1)C(=O)O [Example 674]		40%
CSCC[C@H](NC(=O)c1ccc(CNc2cccc(O)c2)cc1-c1ccccc1)C(=O)O [Example 676]		76%

SMILES	% inhibition at 1 × 10^-6 M	% inhibition at 1 × 10^-5 M
CSCC[C@H](NC(=O)c1ccc(CNc2cccc(I)c2)cc1-c1ccccc1)C(=O)O [Example 677]	37%	
CSCC[C@H](NC(=O)c1ccc(CNc2cccc(OC(F)(F)F)c2)cc1-c1ccccc1)C(=O)O [Example 678]		73%
CSCC[C@H](NC(=O)c1ccc(CNc2cccc(CO)c2)cc1-c1ccccc1)C(=O)O [Example 680]		58%
CSCC[C@H](NC(=O)c1ccc(CNc2cccc(C(N)=O)c2)cc1-c1ccccc1)C(=O)O [Example 682]	31%	
CSCC[C@H](NC(=O)c1ccc(CNc2cccc(N(C)C)c2)cc1-c1ccccc1)C(=O)O [Example 683]		57%
CSCC[C@H](NC(=O)c1ccc(CNc2cccc(CC(=O)O)c2)cc1-c1ccccc1)C(=O)O [Example 684]		48%
CSCC[C@H](NC(=O)c1ccc(CNc2cccc(CCC(=O)O)c2)cc1-c1ccccc1)C(=O)O [Example 685]		55%
CSCC[C@H](NC(=O)c1ccc(CNc2cccc(Oc3ccccc3)c2)cc1-c1ccccc1)C(=O)O [Example 686]		48%
CSCC[C@H](NC(=O)c1ccc(CNc2ccc(F)cc2)cc1-c1ccccc1)C(=O)O [Example 687]		78%
CSCC[C@H](NC(=O)c1ccc(CNc2ccc(I)cc2)cc1-c1ccccc1)C(=O)O [Example 688]		71%
CSCC[C@H](NC(=O)c1ccc(CNc2ccc(O)cc2)cc1-c1ccccc1)C(=O)O [Example 689]		73%
COc1ccc(NCc2ccc(C(=O)N[C@@H](CCSC)C(=O)O)c(-c3ccccc3)c2)cc1 [Example 690]		61%
CSCC[C@H](NC(=O)c1ccc(CNc2ccc(OC(F)(F)F)cc2)cc1-c1ccccc1)C(=O)O [Example 691]	34%	
CSCC[C@H](NC(=O)c1ccc(CNc2ccc(C(C)C)cc2)cc1-c1ccccc1)C(=O)O [Example 692]		74%
CSCC[C@H](NC(=O)c1ccc(CNc2ccc(C(O)(C(F)(F)F)C(F)(F)F)cc2)cc1-c1ccccc1)C(=O)O [Example 693]	53%	
CSCC[C@H](NC(=O)c1ccc(CNc2ccc(CCO)cc2)cc1-c1ccccc1)C(=O)O [Example 694]	45%	
CSCC[C@H](NC(=O)c1ccc(CNc2ccc(N3CCCCC3)cc2)cc1-c1ccccc1)C(=O)O [Example 697]	39%	
CSCC[C@H](NC(=O)c1ccc(CNc2ccc(C3CCCCC3)cc2)cc1-c1ccccc1)C(=O)O [Example 699]		74%
CSCC[C@H](NC(=O)c1ccc(CNc2ccc(-c3ccccc3)cc2)cc1-c1ccccc1)C(=O)O [Example 700]		68%
CSCC[C@H](NC(=O)c1ccc(CNc2ccc(Oc3ccccc3)cc2)cc1-c1ccccc1)C(=O)O [Example 701]		64%
CSCC[C@H](NC(=O)c1ccc(CNc2ccc(C(=O)c3ccccc3)cc2)cc1-c1ccccc1)C(=O)O [Example 702]		79%

SMILES	% inhibition at 1 × 10^-6 M	% inhibition at 1 × 10^-5 M
CSCC[C@H](NC(=O)c1ccc(CNc2ccc(-c3nc4ccccc4s3)cc2)cc1-c1ccccc1)C(=O)O [Example 703]	40%	
CSCC[C@H](NC(=O)c1ccc(CNc2ccc(C)c(C)c2)cc1-c1ccccc1)C(=O)O [Example 704]		67%
CSCC[C@H](NC(=O)c1ccc(CNc2ccc3c(c2)CCC3)cc1-c1ccccc1)C(=O)O [Example 705]		72%
CSCC[C@H](NC(=O)c1ccc(CNc2ccc3c(c2)Cc2ccccc2-3)cc1-c1ccccc1)C(=O)O [Example 706]		53%
CSCC[C@H](NC(=O)c1ccc(CNc2ccc3ncccc3c2)cc1-c1ccccc1)C(=O)O [Example 708]		76%
CSCC[C@H](NC(=O)c1ccc(CNc2cc(C)cc(C)c2)cc1-c1ccccc1)C(=O)O [Example 709]		55%
CSCC[C@H](NC(=O)c1ccc(CNc2cc(C(=O)O)cc(C(=O)O)c2)cc1-c1ccccc1)C(=O)O [Example 710]		45%
CCN(Cc1ccc(C(=O)N[C@@H](CCSC)C(=O)O)c(-c2ccccc2)c1)Cc1cc([N+](=O)[O-])ccc1O [Example 711]		46%
CSCC[C@H](NC(=O)c1ccc(CNCc2cc(Cl)cc(Cl)c2)cc1-c1ccccc1)C(=O)O [Example 712]		69%
CSCC[C@H](NC(=O)c1ccc(CNC(CO)C(O)c2ccccc2)cc1-c1ccccc1)C(=O)O (stereo partly shown) [Example 713]		40%
CSCC[C@H](NC(=O)c1ccc(CNC(CO)Cc2ccccc2)cc1-c1ccccc1)C(=O)O (stereo partly shown) [Example 714]		56%
CSCC[C@H](NC(=O)c1ccc(CN[C@H](CC2CCCCC2)[C@H](O)[C@H](O)CC(C)C)cc1-c1ccccc1)C(=O)O [Example 715]		67%
CSCC[C@H](NC(=O)c1ccc(CN[C@@H](CC2CCCCC2)[C@@H](O)[C@@H](O)CC(C)C)cc1-c1ccccc1)C(=O)O [Example 716]	69%	
CSCC[C@H](NC(=O)c1ccc(CNCCCCc2ccccc2)cc1-c1ccccc1)C(=O)O [Example 718]		40%
CSCC[C@H](NC(=O)c1ccc(CN(C)CC(O)CO)cc1-c1ccccc1C)C(=O)O (stereo partly shown) [Example 719]	90%	
CCc1nnc(NCc2ccc(C(=O)N[C@@H](CCSC)C(=O)O)c(-c3ccccc3C)c2)s1 [Example 723]	87%	
COC(=O)c1cscc1NCc1ccc(C(=O)N[C@@H](CCSC)C(=O)O)c(-c2ccccc2C)c1 [Example 724]	87%	
CSCC[C@H](NC(=O)c1ccc(CNc2ccc(S(=O)(=O)Nc3onc(C)c3C)cc2)cc1-c1ccccc1C)C(=O)O [Example 726]	81%	
CSCC[C@H](NC(=O)c1ccc(CN[C@H](CO)Cc2ccccc2)cc1-c1ccccc1C)C(=O)O [Example 727]	95%	
